Source: BindingDB's records for doi:10.1021/acs.jmedchem.9b01709 (The Institute of Cancer Research, 2019)

Molecular target: Heat shock 70 kDa protein 1A (HSP72/HSPA1A) (Homo sapiens) (UniProt P0DMV8)
Experiment: Covalent inhibition of HSP72-NBD (unknown origin) nucleotide-derived FP probe displacement based by fluorescence polarization assay

Chain of Heat shock 70 kDa protein 1A (HSP72/HSPA1A) (Homo sapiens) (P0DMV8 whole entry, looked up): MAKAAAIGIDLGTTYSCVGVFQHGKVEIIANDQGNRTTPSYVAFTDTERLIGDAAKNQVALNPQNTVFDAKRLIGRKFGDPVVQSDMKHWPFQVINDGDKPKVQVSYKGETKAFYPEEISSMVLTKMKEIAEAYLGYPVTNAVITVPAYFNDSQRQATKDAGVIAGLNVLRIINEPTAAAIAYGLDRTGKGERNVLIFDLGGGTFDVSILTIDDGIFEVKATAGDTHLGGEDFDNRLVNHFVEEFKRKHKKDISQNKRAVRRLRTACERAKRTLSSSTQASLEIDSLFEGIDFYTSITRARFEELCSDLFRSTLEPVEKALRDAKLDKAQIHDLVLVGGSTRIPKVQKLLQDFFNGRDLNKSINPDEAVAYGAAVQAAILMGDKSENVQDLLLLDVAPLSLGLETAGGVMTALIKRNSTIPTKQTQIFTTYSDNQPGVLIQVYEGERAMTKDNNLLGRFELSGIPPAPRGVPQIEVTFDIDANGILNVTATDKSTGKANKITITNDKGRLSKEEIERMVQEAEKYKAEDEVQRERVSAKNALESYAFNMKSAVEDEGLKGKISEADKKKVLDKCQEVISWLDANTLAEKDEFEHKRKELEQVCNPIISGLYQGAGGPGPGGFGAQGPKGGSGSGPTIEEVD

Ki: < 0.2 µM
SMILES: N#Cc1ccc(COC[C@H]2O[C@@H](n3c(NCc4ccc(Cl)c(Cl)c4)nc4c(N)ncnc43)[C@H](O)[C@@H]2O)cc1 [adenosine-derived inhibitor (Grp78), 13]
